Marks after values point to notes of the source that are not given here.
What was measured:
[1] = Corn seed treatment field trials (yield); format: in vivo; conditions: seed treatment in corn, multi-location replicated field trials
Description: (§1) Tioxazafen was combined with commercial fungicides and insecticides in a tank slurry mix with colorant, polymer, and water at the recommended rates and allowed to mix thoroughly. Using a Gustafson continuous batch seed coater the seed batch was loaded, the treatment slurry was injected and the mixture was allowed to tumble for 35-40 seconds before being ejected into a paper storage bag.
(§2) Predictive nematode sampling was conducted prior to field trial implementation to ensure appropriate levels of nematode pressure. Trial areas were divided into 2 acre sections based upon soil type, crop history, tillage, drainage, fertilization and other agronomic factors. […] Sub-samples (˜1 pint of soil) were taken from each composite sample and placed in a plastic bag, with appropriate handling to ensure viability of nematodes, and sent to a lab for nematode quantification. […]
(§3) Quantitative in-season nematode sampling using root and soil samples was conducted eight weeks after planting for corn and soy trials. […] Samples were sent to a lab for nematode quantification.
(§4) Yield data was collected using commercially available harvesting equipment to harvest each plot. The data were calculated to represent bushels per acre by taking the grain weight over the square footage of each plot and adjusting to 15% moisture.

[2] = Soy seed treatment field trials (yield); format: in vivo; conditions: seed treatment in soy, multi-location replicated field trials
Description: as §1, §2, §3, §4

[3] = test system: Meloidogyne incognita (RKN); experiment: Seed treatment test of root knot nematode on cucumber; format: in vivo; conditions: 10 mg ai/gram seed (abamectin positive control), cucumber seeds
Description: For a given concentration the chemical is dissolved in 500 ul of acetone and one gram of cucumber seed (RKN test) or soybean seed (SCN test) is added (e.g., 20 mg active ingredient in 500 ul acetone plus 1 gram of seed). The seed solutions are agitated until all seeds were thoroughly covered with the chemical solution. The acetone is then allowed to evaporate by air drying the seeds. The seeds are planted in 2-inch pots containing sandy soil and then the pots are inoculated with 1000 Meloidogyne incognita (RKN) or 1000 Heterodera glycines (SCN) eggs per pot three days after planting. Plants are rated for galling 14 days after egg inoculation for RKN or 28 days after egg inoculation for SCN.

[4] = test system: Heterodera glycines (SCN); experiment: Seed treatment test of soybean cyst nematode on soybean; format: in vivo; conditions: test a
How it was run: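 Seeds (1 g cucumber for RKN, soybean for SCN) coated with compound in 500 ul acetone, air-dried, sown in sandy soil. Pots inoculated 3 days later with 1000 eggs per pot. Galling rated 14 days (RKN) or 28 days (SCN) after inoculation.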

[5] = mice; cited from earlier work

Compound | effect on yield [1] | effect on yield [2] | percent control (galling reduction) relative to the control blank treatment [3] | percent cyst reduction relative to control blank treatment ([4]; 0.375 mg ai/gram seed) | percent cyst reduction relative to control blank treatment ([4]; 1.5 mg ai/gram seed) | oral LD50 [5]
c1ccc(-c2noc(-c3cccs3)n2)cc1 [Tioxazafen, 3-phenyl-5-(2-thienyl)-1,2,4-oxadiazole] | yield enhancement | yield enhancement |  |  |  | 
Abamectin [reference compound] |  |  | 84% | −14^a percent | −24^a percent | 13.6 mg/kg
